Assay results taken from article PMC9779606, “Synthesis, Structural Characterization and Biological Activity Evaluation of Novel Cu(II) Complexes with 3-(trifluoromethyl)phenylthiourea Derivatives” (International Journal of Molecular Sciences, 2022).
In brackets after ≈: the same amount, converted by molar mass. Read-outs that look alike come from different tables or passages of the source.

Tested on: M. tuberculosis Spec. 210
Test: Tuberculostatic activity, Microplate Alamar Blue Assay (MABA)
Type: cell-based, Mycobacterium tuberculosis
Conditions: M. tuberculosis Spec. 210, patient isolate resistant to PAS, INH, ETB, RMP
Experimental: The synthesized compounds were examined in vitro for their tuberculostatic activity using MABA method (Microplate Alamar Blue Assay method). […] The inoculum was prepared from fresh LJ culture in Middlebrook 7H9 Broth medium with OADC, adjusted to a no. 1 McFarland tube, and diluted 1:20. […] Each test compound stock solution was diluted in Middlebrook 7H9 Broth medium with OADC by fourfold, the final highest concentration to be tested. Compounds were diluted serially in sterile 96-well microtiter plates using 100 μL Middlebrook 7H9 Broth medium with OADC. […] A growth control containing no antibiotic and a sterile control without inoculation were also prepared on each plate. The plates were incubated at 37 °C for a week. After the incubation period, 30 μL of Alamar blue solution was added to each well, and the plate was re-incubated for 24 h. Growth is indicated by a color change from blue to pink and the lowest concentration of compound that prevented the color change was noted as its MIC. Isoniazid (INH), Rifampicin (RMP), Streptomycin (SM), and Ethambutol (EMB) as reference drugs were used for comparison.

[1] = Mycobacterium tuberculosis, read-out: MIC

## CC(NC(=S)[N-]c1cccc(C(F)(F)F)c1)c1ccccc1.CC(NC(=S)[N-]c1cccc(C(F)(F)F)c1)c1ccccc1.[Cu+2] (racemic) [Cu2, Copper(II) Complex with 1-(1-phenylethyl)-3-[3-(trifluoromethyl)phenyl]thiourea]
  MIC: 8 µg/mL

## FC(F)(F)c1cccc([N-]C(=S)NCCc2ccccc2)c1.FC(F)(F)c1cccc([N-]C(=S)NCCc2ccccc2)c1.O.[Cu+2] [Cu1, Copper(II) Complex with 1-(2-phenylethyl)-3-[3-(trifluoromethyl)phenyl]thiourea]
  MIC: 16 µg/mL

## FC(F)(F)c1cccc([N-]C(=S)NCc2ccccc2)c1.FC(F)(F)c1cccc([N-]C(=S)NCc2ccccc2)c1.[Cu+2] [Cu3, Copper(II) Complex with 1-benzyl-3-[3-(trifluoromethyl)phenyl]thiourea]
  MIC: 16 µg/mL

## FC(F)(F)c1cccc([N-]C(=S)Nc2cccc(Br)c2)c1.FC(F)(F)c1cccc([N-]C(=S)Nc2cccc(Br)c2)c1.[Cu+2] [Cu4, Copper(II) Complex with 1-(3-bromophenyl)-3-[3-(trifluoromethyl)phenyl] thiourea]
  MIC: 4 µg/mL

## O.O=[N+]([O-])c1cc(NC(=S)[N-]c2cccc(C(F)(F)F)c2)ccc1Cl.O=[N+]([O-])c1cc(NC(=S)[N-]c2cccc(C(F)(F)F)c2)ccc1Cl.[Cu+2] [Cu5, Copper(II) Complex with 1-(4-chloro-3-nitrophenyl)-3-[3-(trifluoromethyl)phenyl]thiourea]
  MIC: 4 µg/mL

## CC[C@@H](CO)NCCN[C@@H](CC)CO [Ethambutol (EMB), Ethambutol, reference compound]
[1]
  MIC: 32 µg/mL (≈ 157 µM)

## NNC(=O)c1ccncc1 [Isoniazid (INH), Isoniazid, reference compound]
[1]
  MIC: 16 µg/mL (≈ 117 µM)

## CO[C@H]1/C=C/O[C@@]2(C)Oc3c(C)c(O)c4c(O)c(c(/C=N/N5CCN(C)CC5)c(O)c4c3C2=O)NC(=O)/C(C)=C\C=C\[C@H](C)[C@H](O)[C@@H](C)[C@@H](O)[C@@H](C)[C@H](OC(C)=O)[C@@H]1C [Rifampicin (RMP), Rifampicin, reference compound]
[1]
  MIC: 32 µg/mL (≈ 38.9 µM)

## [H]/N=C(/N)N[C@H]1[C@H](O)[C@@H](O)[C@H](O[C@@H]2O[C@@H](C)[C@](O)(C=O)[C@H]2O[C@@H]2O[C@@H](CO)[C@H](O)[C@@H](O)[C@@H]2NC)[C@@H](N/C(N)=N\[H])[C@@H]1O [Streptomycin (SM), Streptomycin, reference compound]
[1]
  MIC: 16 µg/mL (≈ 27.5 µM)
